Assay results as given in patent US20260014147A1, “STAT6 DEGRADERS” (Gilead Sciences, Inc., priority 2024, published 2026).

How the values were obtained:
[1] = test system: Eotaxin-3 (CCL26) release in human whole blood stimulated with IL-4; experiment: Human Whole Blood Eotaxin-3 Assay (IL-4 stimulated, inhibition of eotaxin-3 release); type: cell-based; details: EC50 provided for test compounds with >80% Emax, geometric mean across assay runs and batches
Experimental: This was a human whole blood assay using recombinant human Interleukin 4 to stimulate the blood and measuring the ability of the test compounds to inhibit eotaxin-3 release. The biological activities of the test compounds have been tested in human whole blood stimulated with IL-4 measuring Eotaxin-3 release. The test compounds were added to 384 well clear flat-bottom plate in a 4-fold serial dilution in triplicates using a liquid handler. Human whole blood stabilized in lithium-heparin tubes was added in a volume of 65 uL per well, resulting in a final DMSO concentration of 0.5%. The plate is incubated for 2 h at 37° C. under 5% CO2/95% air. Subsequently, 5 μL of recombinant human IL-4 (R&D Systems, cat #204-ILB) was added to the wells to a final concentration of 400 pM. The plate was incubated for 48 h at 37° C. under 5% CO2/95% air. The plate was spun down for 10 minutes at 500×g and 20 uL supernatant was harvested and transferred to a 384 well v-bottom plate using a liquid handler and stored at −20° C. until further analysis. 10 uL supernatant was used to measure the level of Eotaxin-3 (CCL26) using Human Eotaxin-3 MSD kit from Mesocsale (Cat #K251UEK-4). The assay was performed according to the manufacture instructions.
The data from the human whole blood eotaxin-3 assay is shown below for Examples 2q11, 2110, and 2c49 (where the effect in % is plotted against the test concentration in M on a log-scale).

[2] = target: T1, STAT6 (endogenous, HiBiT-tagged) in HeLa LgBiT clone 4.14 cells (Homo sapiens, UniProt P42226); experiment: STAT6 Degrader Assay (HiBiT based, HeLa LgBiT clone 4.14 cells, luminescence, DC50); type: cell-based; details: geometric mean; for DC50: DC50 provided for test compounds with >80% Emax, read-out: STAT6 degradation DC50
T1 construct: These cells express endogenous STAT6; host or cells: HeLa LgBiT clone 4.14
T1 sequence (P42226 1-847): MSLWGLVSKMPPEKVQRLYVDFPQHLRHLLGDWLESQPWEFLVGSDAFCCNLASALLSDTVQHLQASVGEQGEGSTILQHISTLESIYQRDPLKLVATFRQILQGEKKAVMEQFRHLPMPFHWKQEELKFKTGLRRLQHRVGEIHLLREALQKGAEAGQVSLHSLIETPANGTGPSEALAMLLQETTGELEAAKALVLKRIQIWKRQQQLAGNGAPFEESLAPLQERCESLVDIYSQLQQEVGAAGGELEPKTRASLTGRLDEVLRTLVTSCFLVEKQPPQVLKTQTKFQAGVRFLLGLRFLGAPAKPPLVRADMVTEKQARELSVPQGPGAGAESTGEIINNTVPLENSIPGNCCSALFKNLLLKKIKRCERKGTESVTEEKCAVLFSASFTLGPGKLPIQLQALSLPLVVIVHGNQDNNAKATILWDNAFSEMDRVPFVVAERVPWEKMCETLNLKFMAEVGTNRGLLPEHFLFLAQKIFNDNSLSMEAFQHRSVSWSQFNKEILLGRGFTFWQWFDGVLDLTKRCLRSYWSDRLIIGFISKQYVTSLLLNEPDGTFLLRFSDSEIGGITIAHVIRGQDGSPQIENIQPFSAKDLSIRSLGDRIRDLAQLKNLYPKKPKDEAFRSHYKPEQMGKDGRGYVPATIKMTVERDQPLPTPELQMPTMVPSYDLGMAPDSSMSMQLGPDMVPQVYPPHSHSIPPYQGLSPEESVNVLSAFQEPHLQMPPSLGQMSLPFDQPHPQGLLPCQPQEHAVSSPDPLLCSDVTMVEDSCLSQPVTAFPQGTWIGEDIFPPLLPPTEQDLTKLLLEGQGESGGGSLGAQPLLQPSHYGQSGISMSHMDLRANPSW
Procedure, shortened: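 HeLa LgBiT clone 4.14 cells carry CRISPR-inserted HiBiT on endogenous STAT6; 5000 cells/well were exposed to compound for 4-24 h at 37 °C, 5% CO2. Nano-Glo substrate added for 0.5 h; luminescence reflects remaining STAT6, with terfenadine ([…]) wells defining 100% degradation.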

EC50 ([1]; Homo sapiens) [nM] | DC50 [2] [nM] | EC50 [1] [nM] | Emax ([2]; Emax provided for test compounds with <80% Emax (and 2c15), read-out: STAT6 degradation Emax) [%] | SMILES
249 | 69.2 | – | – | C[C@@H](c1cc2c(-c3ccc(N)nc3)ccnc2n1C)N1CCC(c2ccc(C(=O)N3CCC(CN4CCN(c5ccc(NC6CCC(=O)NC6=O)cc5F)CC4C(F)(F)F)CC3)cc2)CC1 (mixture of isomers) [Example 2f9, 3-((4-(4-((1-(4-(1-((S)-1-(4-(6-aminopyridin-3-yl)-1-methyl-1H-pyrrolo[2,3-b]pyridin-2-yl)-ethyl)piperidin-4-yl)benzoyl)piperidin-4-yl)methyl)-3-(trifluoromethyl)-piperazin-1-yl)-3-fluorophenyl)-amino)piperidine-2,6-dione]
109 | 10.5 | – | – | C[C@@H](c1cc2c(-c3ccc(N)nc3)ccnc2n1C)N1CCC(c2ccc(C(=O)N3CCC(CN4CCN(c5ccc(N[C@H]6CCC(=O)NC6=O)cc5F)CC4)CC3)cc2)CC1 (single isomer, unassigned) [Example 2c19]
– | 9.6 | 82.8 | – | C[C@@H](c1cc2c(-c3ccc(N)nc3)ccnc2n1C)N1CCC(c2ccc(C(=O)N3CCC(CN4CCN(c5ccc(N[C@H]6CCC(=O)NC6=O)cc5F)CC4)CC3)cc2)CC1 (single isomer, unassigned) [Example 2c20]
30.7 | 3.9 | – | – | COCc1nc2cc(-c3ccnc4c3cc([C@H](C)N3CCC(c5ccc(C(=O)N6CCC(CN7CCN(c8ccc(N[C@@H]9CCC(=O)NC9=O)cc8F)CC7)CC6)cc5)CC3)n4C)ccc2[nH]1 (single isomer, unassigned) [Example 2c52]
30.9 | 4.7 | – | – | COCc1nc2cc(-c3ccnc4c3cc([C@H](C)N3CCC(c5ccc(C(=O)N6CCC(CN7CCN(c8ccc(N[C@H]9CCC(=O)NC9=O)cc8F)CC7)CC6)cc5)CC3)n4C)ccc2[nH]1 (single isomer, unassigned) [Example 2c53]
19.7 | 4.1 | – | – | COCc1nc2cc(-c3ccnc4c3cc([C@H](C)N3CCC(c5ccc(C(=O)N6CCC(CN7CCN(c8ccc(N[C@H]9CCC(=O)NC9=O)cc8F)C[C@H]7C)CC6)cc5)CC3)n4C)ccc2[nH]1 (single isomer, unassigned) [Example 2f12]
15.6 | 2.5 | – | – | COCc1nc2cc(-c3ccnc4c3cc([C@H](C)N3CCC(c5ccc(C(=O)N6CCC(CN7CCN(c8ccc(N[C@@H]9CCC(=O)NC9=O)cc8F)C[C@H]7C)CC6)cc5)CC3)n4C)ccc2[nH]1 (single isomer, unassigned) [Example 2f13]
3.2 | 1 | – | – | C[C@@H](c1cc2c(-c3ccc(N)nc3)ccnc2n1C)N1CCC(c2ccc(C(=O)N3CCn4nc(CN5CCC(c6ccc(N[C@@H]7CCC(=O)NC7=O)cc6F)CC5)cc4C3)cc2)CC1 (single isomer, unassigned) [Example 2q10]
5.9 | 0.8 | – | – | C[C@@H](c1cc2c(-c3ccc(N)nc3)ccnc2n1C)N1CCC(c2ccc(C(=O)N3CCn4nc(CN5CCC(c6ccc(N[C@H]7CCC(=O)NC7=O)cc6F)CC5)cc4C3)cc2)CC1 (single isomer, unassigned) [Example 2q11]
65 | 6.6 | – | – | C[C@@H](c1cc2c(-c3ccc(N)nc3)ccnc2n1C)N1CCC(c2ccc(C(=O)N3CCC(CN4CCN(c5ccc(NC6CCC(=O)NC6=O)cc5F)CC4)CC3)cc2)CC1 (stereo partly drawn) [Example 2c14, 3-((4-(4-((1-(4-(1-((S)-1-(4-(6-aminopyridin-3-yl)-1-methyl-1H-pyrrolo[2,3-b]pyridin-2-yl)ethyl)-piperidin-4-yl)benzoyl)piperidin-4-yl)methyl)piperazin-1-yl)-3-fluorophenyl)amino)piperidine-2,6-dione]
22.6 | 1.2 | – | – | COCc1nc2ccc(-c3ccnc4c3cc([C@H](C)N3CCC(c5ccc(C(=O)N6CCC(CN7CCN(c8ccc(NC9CCC(=O)NC9=O)cc8F)CC7)CC6)cc5)CC3)n4C)cc2[nH]1 (stereo partly drawn) [Example 2c16, 3-((3-fluoro-4-(4-((1-(4-(1-((S)-1-(4-(2-(methoxymethyl)-1H-benzo[d]imidazol-6-yl)-1-methyl-1H-pyrrolo[2,3-b]pyridin-2-yl)ethyl)piperidin-4-yl)benzoyl)piperidin-4-yl)methyl)piperazin-1-yl)phenyl)amino)piperidine-2,6-dione]
39 | 4.8 | – | – | CO[C@@H](C)c1nc2cc(-c3ccnc4c3cc([C@H](C)N3CCC(c5ccc(C(=O)N6CCC(CN7CCN(c8ccc(NC9CCC(=O)NC9=O)cc8F)CC7)CC6)cc5)CC3)n4C)ccc2[nH]1 (stereo partly drawn) [Example 2c18, 3-((3-fluoro-4-(4-((1-(4-(1-((S)-1-(4-(2-((S)-1-methoxyethyl)-1H-benzo[d]imidazol-5-yl)-1-methyl-1H-pyrrolo[2,3-b]pyridin-2-yl)ethyl)piperidin-4-yl)benzoyl)piperidin-4-yl)methyl)piperazin-1-yl)phenyl)amino)piperidine-2,6-dione]
153 | 28.2 | – | – | C[C@@H](c1cc2c(-c3ccc(N)nc3C#N)ccnc2n1C)N1CCC(c2ccc(C(=O)N3CCC(CN4CCN(c5ccc(NC6CCC(=O)NC6=O)cc5F)CC4)CC3)cc2)CC1 (stereo partly drawn) [Example 2c22, 6-amino-3-(2-((1S)-1-(4-(4-(4-((4-(4-((2,6-dioxopiperidin-3-yl)amino)-2-fluorophenyl)-piperazin-1-yl)methyl)piperidine-1-carbonyl)phenyl)piperidin-1-yl)ethyl)-1-methyl-1H-pyrrolo[2,3-b]pyridin-4-yl) picolinonitrile]
49.2 | 9.6 | – | – | C[C@@H](c1cc2c(-c3ccc(N)nc3)ccnc2n1C)N1CCC(c2ccc(C(=O)N3CCC(F)(CN4CCN(c5ccc(NC6CCC(=O)NC6=O)cc5F)CC4)CC3)cc2)CC1 (stereo partly drawn) [Example 2c23, 3-((4-(4-((1-(4-(1-((S)-1-(4-(6-aminopyridin-3-yl)-1-methyl-1H-pyrrolo[2,3-b]pyridin-2-yl)ethyl)-piperidin-4-yl)benzoyl)-4-fluoropiperidin-4-yl)methyl)piperazin-1-yl)-3-fluorophenyl)amino)-piperidine-2,6-dione]
792 | 44.7 | – | – | C[C@@H](c1cc2c(-c3cnc(N)c(F)c3)ccnc2n1C)N1CCC(c2ccc(C(=O)N3CCC(CN4CCN(c5ccc(NC6CCC(=O)NC6=O)cc5F)CC4)CC3)cc2)CC1 (stereo partly drawn) [Example 2c24, 3-((4-(4-((1-(4-(1-((S)-1-(4-(6-amino-5-fluoropyridin-3-yl)-1-methyl-1H-pyrrolo[2,3-b]pyridin-2-yl)ethyl)piperidin-4-yl)benzoyl)piperidin-4-yl)methyl)piperazin-1-yl)-3-fluorophenyl)-amino)piperidine-2,6-dione]
188 | – | – | 60 to 70 | C[C@@H](c1cc2c(-c3ccc(NCCO)nc3)ccnc2n1C)N1CCC(c2ccc(C(=O)N3CCC(CN4CCN(c5ccc(NC6CCC(=O)NC6=O)cc5F)CC4)CC3)cc2)CC1 (stereo partly drawn) [Example 2c26, 3-((3-fluoro-4-(4-((1-(4-(1-((S)-1-(4-(6-((2-hydroxyethyl)amino)pyridin-3-yl)-1-methyl-1H-pyrrolo[2,3-b]pyridin-2-yl)ethyl)piperidin-4-yl)benzoyl)piperidin-4-yl)methyl)piperazin-1-yl)phenyl)-amino)piperidine-2,6-dione]
